{"source": "patent US10047345B2", "about": "“Culturing of mesenchymal stem cells with FGF4 and nicotinamide” (Gamida-Cell Ltd., priority 2012, dated 2018)", "key": {"[1]": {"test_system": "adipose tissue derived mesenchymal stem cells", "assay": "Expansion and phenotype of adipose tissue derived MSCs with nicotinamide", "type": "cell-based, human", "experimental": "(§1) Cell number was measured using Cedex Automated Cell Counter (Innovatis). The cells were diluted 1:2 in Trypan Blue (Sigma) and cell number was measured automatically under microscope."}, "mesenchymal stem cells": {"test_system": "mesenchymal stem cells", "assay": "CFU-F assay", "type": "cell-based, human", "settings": "5 mM nicotinamide", "experimental": "Cultured MSCs were seeded in 6-well plates at density of 50-100 cells/cm^2 and maintained with DMEM and 10% FBS. After 14 days the cells were fixed using 10% cold Formalin (Sigma) and stained with Harris Hematoxylin (Sigma). Clones (cluster of more than 50 cells with evident epicenter) are stained blue-purple and counted using microscope."}, "[2]": {"test_system": "umbilical cord-derived CD133+ hematopoietic stem cells", "assay": "Differentiation and proliferation of ex-vivo cultured hematopoietic stem cells (FACS surface markers)", "type": "cell-based", "experimental": "Umbilical cord-derived hematopoietic stem cells were isolated using CD133 microbeads and CliniMACS® separator (Miltenyi, Inc. Auburn, Calif.), and cultured for 3 weeks in MEMα supplemented with 50 ng/ml TPO, IL6, SCF, Flt3, fetal bovine serum, ±2.5 or 5 mM nicotinamide, and/or 10, 50 or 200 ng/ml FGF4. After 3 weeks in culture the cells were stained for surface markers (CD38, CD133, CD33, CD19) and the cell populations determined by FACS analysis (see below). Results are expressed as percentage of total population assayed.\nAt different time points the cells were detached with 0.25% trypsin-EDTA. The cells were washed with a PBS solution containing 1% BSA, and stained (at 4° C. for 30 min) with either fluorescein isothiocyanate (FITC) or phycoerythrin (PE)-conjugated antibodies: 105 PE, 105 FITC (Serotec, Raleigh, N.C.), 45 FITC, 14 FITC, HLA-DR FITC, 106 PE, 31 PE (BD, Franklin Lakes N.J.), 34 PE (Dako, Glostrup, Denmark), 73 PE, HLA class1 PE, 49b PE (Pharmingen, San Diego, Calif.), 29 PE, 44 PE, 54 FITC, 59 PE, 90 PE (BioLegend, San Diego, Calif.). CD133—(AC141) PE (Miltenyi, Auburn, Calif.), CD38 FITC (Dako, Glostrup, Denmark), CD19 FITC (BD Biosciences, Franklin Lakes N.J.), CD33 FITC (BD Bioscience, Franklin Lakes N.J.).\nThe cells were then washed in the above buffer and analyzed using a FACScalibur® flow cytometer (Becton Dickinson, Franklin Lakes N.J.). The cells were passed at a rate of up to 1000 cells/second, using a 488 nm argon laser beam as the light source for excitation. Emission of 10000 cells was measured using logarithmic amplification, and analyzed using the CellQuest software (Becton Dickinson). Cells stained with FITC- and PE-conjugated isotype control antibodies were used to determine background fluorescence.\nUmbilical cord-derived CD133+ hematopoietic stem cells were isolated and cultured for 3 weeks in medium supplemented with early-acting growth factors and fetal bovine serum, nicotinamide and/or FGF4. After 3 weeks in culture the cells were stained for surface markers (CD38, CD133, CD19) and the cell populations determined by FACS analysis. Cell proliferation was assessed by counting total cells at three weeks."}, "[3]": {"test_system": "adipose-derived mesenchymal stem cells", "assay": "Adipose-derived MSC proliferation and cell size with nicotinamide with or without FGF4", "type": "cell-based, human", "settings": "Cedex cell counter; 5 mM NAM, 50 ng/ml FGF4", "experimental": "as §1"}}, "data": [{"smiles": "NC(=O)c1cccnc1", "note": "[nicotinamide, Nicotinamide]", "values": [{"measurement": "differentiation state (surface marker composition) after expansion in nicotinamide", "setting": "[1]; at least six passages", "value": "without induction of differentiation"}, {"measurement": "adipose derived mesenchymal stem cell expansion in culture", "setting": "[1]; nicotinamide added from passage 3", "value": "substantially improved"}, {"measurement": "cumulative CFU-F count", "setting": "mesenchymal stem cells", "value": "increases the cumulative CFU-F count"}, {"measurement": "degree of differentiation of hematopoietic progenitor cells (CD38 and CD133-expressing fraction)", "setting": "[2]; 3 weeks culture, nicotinamide 2.5 or 5 mM, FGF4 10 to 200 ng/ml", "value": "decreases significantly"}, {"measurement": "fraction of undifferentiated early progenitors (CD38-CD133+)", "setting": "[2]; 3 weeks, FIG. 35", "value": "significantly greater fraction"}, {"measurement": "differentiation (CD38+ cells)", "setting": "[2]; 3 weeks, FIG. 36", "value": "significant inhibition of differentiation"}, {"measurement": "myeloid lineage differentiation (CD33+ cells)", "setting": "[2]; 3 weeks, FIG. 37", "value": "significant inhibition"}, {"measurement": "lymphoid lineage differentiation (CD19+ cells)", "setting": "[2]; 3 weeks, FIG. 38", "value": "striking inhibition"}, {"measurement": "abundance of committed myeloid or lymphoid cells (CD33, CD19)", "setting": "[2]; three week cultures", "value": "consistently reduced the committed cell fraction"}, {"measurement": "prevalence of smaller size cells in adipose derived MSC cultures", "setting": "[3]", "value": "increased prevalence of smaller size cells"}]}]}
